B1: NgCAM: immunogenic chick NgCAM given intrathecally (protein, UniProt Q03696 21-1266, looked up)
Neuronal-glial cell adhesion …: ITIPPEYGAHDFLQPPELTEEPPEQLVVFPSDDIVLKCVATGNPPVQYRWSREDQPFVPEEHGGVSVVPGSGTLVINATLAARLQGRFRCFATNALGTAVSPEANVIAENTPQWPKEKVTPVEVEEGDPVVLPCDPPESAVPPKIYWLNSDIVHIAQDERVSMGQDGNLYFSNAMVGDSHPDYICHAHFLGPRTIIQKEPLDLRVAPSNAVRSRRPRLLLPRDPQTTTIALRGGSVVLECIAEGLPTPWVRWRRLNGPLLPGGVGNFNKTLRLWGVTESDDGEYECVAENGRGTARGTHSVTVEAAPYWVRRPQSGVFGPGETARLDCEVGGKPRPQIQWSINGVPIEAAGAERRWLRGGALVLPELRPNDSAVLQCEARNRHGPLLANAFLHVVELPLRMLTADEQRYEVVENQTVFLHCRTFGAPAPNVEWLTPTLEPALQDDRSFVFTNGSLRVSAVRGGDGGVYTCMAQNAHSNGSLTALLEVRAPTRISAPPRSATAKKGETVTFHCGATFDPAVTPGELRWLRGGQPLPDDPRYSVAAEMTVSNVDYGDEGTIQCRASTPLDSAEAEAQLRVVGRPPSRDLQVMEVDEHRVRLSWTPGDDHNSPIEKFVVEEEEEREDLQRGFGAADVPGQPWTPPLPLSPYGRFPFRVVAVNAYGRGEHHAPSAPIETPPAAPERNPGGVHGEGNETGNLVITWEPLPPQAWNAPWARYRVQWRPLEEPGGGGPSGGFPWAESTVDAPPVVVGGLPPFSPFQIRVQAVNGAGKGPEATPGVGHSGEDLPLVYPENVGVELLNSSTVRVRWTLGGGPKELRGRLRGFRVLYWRLGWVGERSRRQAPPDPPQIPQSPAEDPPPFPPVALTVGGDARGALLGGLRPWSRYQLRVLVFNGRGDGPPSEPIAFETPEGVPGPPEELRVERLDDTALSVVERRTFKRSITGYVLRYQQVEPGSALPGGSVLRDPQCDLRGLNARSRYRLALPSTPRERPALQTVGSTKPEPPSPLWSRFGVGGRGGFHGAAVEFGAAQEDDVEFEVQFMNKSTDEPWRTSGRANSSLRRYRLEGLRPGTAYRVQFVGRNRSGENVAFWESEVQTNGTVVPQPGGGVCTKGWFIGFVSSVVLLLLILLILCFIKRSKGGKYSVKDKEDTQVDSEARPMKDETFGEYRSLESEAEKGSASGSGAGSGVGSPGRGPCAAGSEDSLAGYGGSGDVQFNEDGSFIGQYRGPGAGPGSSGPASPCAGPPLD

Legend:
dopaminergic neurons [1] = assay: [3H]dopamine uptake in primary cultures of embryonic ventral mesencephalon; type: cell-based, rat; details: 0.5 μM, 3 days
Description: (§1) Cell culture, dopamine uptake and treatment with MPP+have been described (Hartikka et al., 1992). Primary cultures containing dopaminergic neurons were prepared from the ventral mesencephalon of 14-day-old fetal rats and plated in 24 well plates. A culture well usually contained 6×10^5 cells/well, of which 3-5% were dopaminergic. Duplicate cultures were prepared for dopamine uptake or tyrosine hydroxylase staining. Dopamine uptake was measured using tritiated dopamine at concentrations of 50 nM (sp, act. 45 Ci/mmol, New England Nuclear). The survival of dopaminergic neurons in the culture was assayed by counting tyrosine hydroxylase (TH) immunopositive neurons, stained with a monoclonal antibody to TH (Boehringer Mannheim).
(§2) The monoclonal L1 antibodies 327 and 557.B6 (referred to as 557) were added to the culture medium on the day of plating at concentrations of 7.5-120 μg/ml and left for 3 days. In addition to treatment of the culture medium with antibodies, they were also substrate coated prior to plating of the cells, as described (Appel et al., 1993). In experiments with MPP^+ (active metabolite of methyl-phenyl-tetrahydropyridine, MPTP), antibodies or cAMP-elevating agents were added to the culture medium of 5-day-old cultures, followed by 1 μM MPP^+ on day 6 and cells were fixed on day 8 for immunocytochemistry. […]

dopaminergic neurons [2] = assay: Protection of dopaminergic neurons from MPP+ neurotoxicity; type: cell-based, rat; details: forskolin combined with PDE-IV inhibitor NQ-A
Description: as §1, §2

injured rat spinal cord = assay: Rat spinal cord contusion injury (NYU impactor), intrathecal infusion; type: in vivo; details: 15 μg/ml intrathecally, 6 rats without CyA; unpublished experiments
Description: The NYU Impactor and rat contusion models of spinal cord injury have been extensively described. [Kwo S, Young W, DeCrescito V (1989) Journal of Neurotrauma 6:13-24; Huang P, Young W (1994). Journal of Neurotrauma 11: 547-62; Basso M, Beattie M, Bresnahan J, Anderson DK, Faden A, et al. (1996) Journal of Neurotrauma in press; Constantini S, Young W (1994) Journal of Neurosurgery 80: 97-111]. Rats were anesthetized with an intraperitoneal dose of pentobarbital (40 mg/kg female, 60 mg/kg male), suspended with clamps placed on the T8 and T11 dorsal processes, and injured at one hour after induction of anesthesia. The impactor drops a 10 g rod a distance of 12.5, 25.0, or 50.0 mm onto the dorsal surface of T9-10 spinal cord, exposed by laminectomy. Two digital optical potentiometers measured the trajectory of the falling rod and vertebral movement with a precision of ±20 μm and ±20 μsec. Cord compression rate (Cr) was calculated from the distance of cord compression divided by time required for compression. […]
The rats received daily Keflin® (15 mg/kg b.i.d. subcutaneous) for one week after injury and then Baytril® (5 mg/kg b.i.d. subcutaneous) for 10 days for recurrent urinary tract infections. […] The rats were assessed weekly for locomotor recovery, using the Basso-Beattie-Bresnahan (BBB) scale developed at Ohio State University. […]

| Molecule | dopamine uptake (dopaminergic neurons [1]) | protection from MPP+ toxicity (dopaminergic neurons [2]) | locomotor recovery and corticospinal tract regeneration (injured rat spinal cord) |
| --- | --- | --- | --- |
| COC(=O)c1cccc(-n2c(=O)n(Cc3ccccc3)c(=O)c3ccccc32)c1 [NQ-A, 1-(3-carbomethoxyphenyl)-3-benzyl-quinazoline-2,4-dione] | slight elevation of dopamine uptake | effectively protects against MPP^+ toxicity | – |
| B1 | – | – | did not result in locomotor recovery or evidence of regenerating corticospinal tracts |

— patent publication US6576607B1, “Methods using CNS neurite outgrowth modulators” (Acorda Therapeutics, priority 1995, dated 2003)
